PubChem BioAssay (NCI)
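The compound was tested at five concentrations on cells cultured in 96-well plates, with a 48-hour exposure period. TGI denotes the concentration required for complete inhibition of growth.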

Columns and labels:
Test in all cases: growth of human tumour cells (NCI), 48 h
[1] = system: 786-0 renal
[2] = system: A498 renal
[3] = system: A549 NSCLC
[4] = system: ACHN renal
[5] = system: BT-549 breast
[6] = system: CAKI-1 renal
[7] = system: CCRF-CEM leukemia
[8] = system: COLO 205 colon
[9] = system: DU-145 prostate
[10] = system: EKVX NSCLC
[11] = system: HCC-2998 colon
[12] = system: HCT-116 colon
[13] = system: HCT-15 colon
[14] = system: HL-60(TB) leukemia
[15] = system: HOP-62 NSCLC
[16] = system: HOP-92 NSCLC
[17] = system: HS 578T breast
[18] = system: HT29 colon
[19] = system: IGROV1 ovarian
[20] = system: K-562 leukemia
[21] = system: KM12 colon
[22] = system: LOX IMVI melanoma
[23] = system: M14 melanoma
[24] = system: MALME-3M melanoma
[25] = system: MCF7 breast
[26] = system: MDA-MB-435
[27] = system: MDA-N
[28] = system: MOLT-4 leukemia
[29] = system: NCI-H23 lung
[30] = system: NCI-H460 lung
[31] = system: NCI-H522 lung
[32] = system: NCI/ADR-RES ovarian
[33] = system: OVCAR-3 ovarian
[34] = system: OVCAR-4 ovarian
[35] = system: OVCAR-5 ovarian
[36] = system: PC-3 prostate
[37] = system: RPMI-8226 leukemia
[38] = system: RXF 393 renal
[39] = system: SF-268 CNS
[40] = system: SF-295 CNS
[41] = system: SK-MEL-28 melanoma
[42] = system: SK-MEL-5 melanoma
[43] = system: SN12C renal
[44] = system: SW-620 colon
[45] = system: U251 CNS
[46] = system: UACC-257 melanoma
[47] = system: UACC-62 melanoma
[48] = system: UO-31 renal
[49] = system: MDA-MB-231 breast
[50] = system: NCI-H226 lung
[51] = system: OVCAR-8 ovarian
[52] = system: SF-539 CNS
[53] = system: SK-MEL-2 melanoma
[54] = system: SK-OV-3 ovarian
[55] = system: SNB-19 CNS
[56] = system: SNB-75 CNS
[57] = system: SR leukemia
[58] = system: T-47D breast
[59] = system: TK-10 renal

Cc1ccccc1Nc1cn(CCOc2ccccc2)c(=O)n(CCOc2ccccc2)c1=O
TGI [1]: > 100 µM | TGI [2]: > 100 µM | TGI [3]: > 100 µM | TGI [4]: > 100 µM | TGI [5]: > 100 µM | TGI [6]: > 100 µM | TGI [7]: > 100 µM | TGI [8]: > 100 µM | TGI [9]: > 100 µM | TGI [10]: > 100 µM | TGI [11]: > 100 µM | TGI [12]: > 100 µM | TGI [13]: > 100 µM | TGI [14]: > 100 µM | TGI [15]: > 100 µM | TGI [16]: > 100 µM | TGI [17]: > 100 µM | TGI [18]: > 100 µM | TGI [19]: > 100 µM | TGI [20]: > 100 µM | TGI [21]: > 100 µM | TGI [22]: > 100 µM | TGI [23]: > 100 µM | TGI [24]: 63.7 µM | TGI [25]: > 100 µM | TGI [26]: > 100000 nM | TGI [27]: > 100000 nM | TGI [28]: > 100 µM | TGI [29]: > 100 µM | TGI [30]: > 100 µM | TGI [31]: > 100 µM | TGI [32]: > 100 µM | TGI [33]: > 100 µM | TGI [34]: > 100 µM | TGI [35]: > 100 µM | TGI [36]: > 100 µM | TGI [37]: > 100 µM | TGI [38]: > 100 µM | TGI [39]: > 100 µM | TGI [40]: > 100 µM | TGI [41]: > 100 µM | TGI [42]: > 100 µM | TGI [43]: > 100 µM | TGI [44]: > 100 µM | TGI [45]: > 100 µM | TGI [46]: > 100 µM | TGI [47]: > 100 µM | TGI [48]: > 100 µM

COc1ccc(OC)c(/C=C/c2cnnc3ccccc23)c1
TGI [1]: > 10 µM | TGI [3]: > 10 µM | TGI [4]: > 10 µM | TGI [6]: > 10 µM | TGI [7]: > 10 µM | TGI [8]: > 10 µM | TGI [9]: > 10 µM | TGI [10]: > 10 µM | TGI [11]: > 10 µM | TGI [12]: > 10 µM | TGI [13]: > 10 µM | TGI [14]: > 10 µM | TGI [15]: > 10 µM | TGI [16]: > 10 µM | TGI [17]: 7.76 µM | TGI [18]: > 10 µM | TGI [19]: > 10 µM | TGI [20]: > 10 µM | TGI [21]: > 10 µM | TGI [22]: > 10 µM | TGI [23]: > 10 µM | TGI [25]: > 10 µM | TGI [49]: > 10 µM | TGI [26]: 2010 nM | TGI [27]: 2500 nM | TGI [28]: > 10 µM | TGI [50]: > 10 µM | TGI [29]: > 10 µM | TGI [30]: > 10 µM | TGI [31]: > 10 µM | TGI [32]: 7.81 µM | TGI [33]: > 10 µM | TGI [34]: > 10 µM | TGI [35]: > 10 µM | TGI [51]: > 10 µM | TGI [36]: > 10 µM | TGI [37]: > 10 µM | TGI [38]: > 10 µM | TGI [39]: > 10 µM | TGI [40]: > 10 µM | TGI [52]: 8.62 µM | TGI [53]: 6.43 µM | TGI [41]: > 10 µM | TGI [42]: > 10 µM | TGI [54]: > 10 µM | TGI [43]: > 10 µM | TGI [55]: > 10 µM | TGI [56]: > 10 µM | TGI [57]: 5.14 µM | TGI [44]: > 10 µM | TGI [58]: > 10 µM | TGI [59]: > 10 µM | TGI [45]: > 10 µM | TGI [46]: > 10 µM | TGI [47]: > 10 µM | TGI [48]: > 10 µM
